Reference: the supplement of paper PMC10307832

Tests used:
Assay in all cases: relative viability (nuclei count vs DMSO), 5 days (fraction); higher = more cells survive
NCI-H661 = conditions: first compound 4 µM
Procedure, shortened: (§1)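 Relative viability divides the nuclei count in treated wells by that in vehicle wells. Lung cancer cell lines were seeded in 1536-well plates, dosed by pin tool the next day, and fixed and stained after 5 days in one step with final 0.05% Triton X-100, 1% formaldehyde and 1 ug/ml Hoechst. Dosing was a single drug or a fixed anchor-drug dose plus five library-drug doses (not always all listed) in √10 steps, and values are medians of duplicate plates imaged at 4×.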

NCI-H522 = test system: NCI-H522
Procedure, shortened: as §1

NCI-H322M = test system: NCI-H322M
Procedure, shortened: as §1

PC-14 = test system: PC-14
Procedure, shortened: as §1

NCI-H520 = test system: NCI-H520
Procedure, shortened: as §1

NCI-H3122 = test system: NCI-H3122
Procedure, shortened: as §1

NCI-H650 = test system: NCI-H650
Procedure, shortened: as §1

NCI-H2170 = test system: NCI-H2170
Procedure, shortened: as §1

NCI-H2347 = test system: NCI-H2347
Procedure, shortened: as §1

NCI-H727 = test system: NCI-H727
Procedure, shortened: as §1

NCI-H1355 = test system: NCI-H1355
Procedure, shortened: as §1

LXF-289 = test system: LXF-289
Procedure, shortened: as §1

Clc1ccc(Nc2nnc(Cc3ccncc3)c3ccccc23)cc1 [Vatalanib] + Cc1cc(Nc2cc(N3CCN(C)CC3)nc(Sc3ccc(NC(=O)C4CC4)cc3)n2)n[nH]1 [Tozasertib] (partner 0.1 µM)
relative viability (NCI-H661): 0.366 | relative viability (NCI-H522; first compound 0.04 µM): 0.565 | relative viability (NCI-H522; first compound 0.1265 µM): 0.508 | relative viability (NCI-H522; first compound 0.4 µM): 0.636 | relative viability (NCI-H522; first compound 1.265 µM): 0.57 | relative viability (NCI-H522; first compound 4 µM): 0.477 | relative viability (NCI-H322M; first compound 0.04 µM): 0.446 | relative viability (NCI-H322M; first compound 0.1265 µM): 0.441 | relative viability (NCI-H322M; first compound 0.4 µM): 0.553 | relative viability (NCI-H322M; first compound 1.265 µM): 0.479 | relative viability (NCI-H322M; first compound 4 µM): 0.463 | relative viability (PC-14; first compound 0.04 µM): 0.625 | relative viability (PC-14; first compound 0.1265 µM): 0.523 | relative viability (PC-14; first compound 1.265 µM): 0.51 | relative viability (PC-14; first compound 4 µM): 0.592 | relative viability (NCI-H520; first compound 0.04 µM): 0.443 | relative viability (NCI-H520; first compound 0.1265 µM): 0.385 | relative viability (NCI-H520; first compound 0.4 µM): 0.467 | relative viability (NCI-H520; first compound 1.265 µM): 0.443 | relative viability (NCI-H520; first compound 4 µM): 0.422 | relative viability (NCI-H3122; first compound 0.04 µM): 0.401 | relative viability (NCI-H3122; first compound 0.1265 µM): 0.358 | relative viability (NCI-H3122; first compound 1.265 µM): 0.378 | relative viability (NCI-H3122; first compound 4 µM): 0.385 | relative viability (NCI-H650; first compound 0.04 µM): 0.81 | relative viability (NCI-H650; first compound 0.1265 µM): 0.655 | relative viability (NCI-H650; first compound 1.265 µM): 0.718 | relative viability (NCI-H650; first compound 4 µM): 0.631 | relative viability (NCI-H2170; first compound 0.04 µM): 0.768 | relative viability (NCI-H2170; first compound 0.1265 µM): 0.706 | relative viability (NCI-H2170; first compound 0.4 µM): 0.796 | relative viability (NCI-H2170; first compound 1.265 µM): 0.677 | relative viability (NCI-H2170; first compound 4 µM): 0.777 | relative viability (NCI-H2347; first compound 0.04 µM): 0.462 | relative viability (NCI-H2347; first compound 0.1265 µM): 0.579 | relative viability (NCI-H2347; first compound 0.4 µM): 0.678 | relative viability (NCI-H2347; first compound 1.265 µM): 0.61 | relative viability (NCI-H2347; first compound 4 µM): 0.55 | relative viability (NCI-H727; first compound 0.04 µM): 0.6 | relative viability (NCI-H727; first compound 0.1265 µM): 0.658 | relative viability (NCI-H727; first compound 0.4 µM): 0.472 | relative viability (NCI-H727; first compound 1.265 µM): 0.624 | relative viability (NCI-H727; first compound 4 µM): 0.533 | relative viability (NCI-H1355; first compound 0.04 µM): 0.585 | relative viability (NCI-H1355; first compound 0.1265 µM): 0.58 | relative viability (NCI-H1355; first compound 0.4 µM): 0.664 | relative viability (NCI-H1355; first compound 1.265 µM): 0.462 | relative viability (NCI-H1355; first compound 4 µM): 0.521 | relative viability (LXF-289; first compound 0.04 µM): 0.201 | relative viability (LXF-289; first compound 0.1265 µM): 0.168 | relative viability (LXF-289; first compound 0.4 µM): 0.229 | relative viability (LXF-289; first compound 1.265 µM): 0.192 | relative viability (LXF-289; first compound 4 µM): 0.212
